Measurements: paper PMC7582905, “Effect of Disulfide Cyclization of Ultrashort Cationic Lipopeptides on Antimicrobial Activity and Cytotoxicity” (International Journal of Molecular Sciences, 2020)
In brackets after ≈: the same amount, converted by molar mass. Like-named read-outs stand apart in the source and are kept apart here. Where a SMILES comes first, the peptide text is derived from it. Bridges are numbered along the chain shown (N, C = ends). The star is where a group is joined. Palmitoyl = CCCCCCCCCCCCCCCC(=O)*

What was measured:
Type in all cases: cell-based
[1] = test system: human keratinocytes (HaCaT); experiment: MTT assay; settings: 24 h incubation at 37 °C, six replicates per concentration, repeated at least twice
Description: (§1) To assess the cytotoxicity of the test lipopeptides (IC50), the classic MTT assay on 96-well polystyrene plates was performed for human keratinocytes (HaCaT) and human cervical adenocarcinoma cell line (HeLa S3) acquired from the ATCC. The assay utilizes colorimetric determination of the cell metabolic activity and the color intensity reflects the number of live cells that can be measured spectrophotometrically. The cell line was cultured in a Dulbecco’s modified Eagle Medium (Invitrogen) supplemented with 10% fetal bovine serum (v/v), 100 units/mL of penicillin, 100 μg/mL of streptomycin, and 2 mM l-glutamine and was stored at 37 °C in a humidified 5% CO2 incubator. Briefly, a day after plating of 500 cells per well, a series of concentrations (0.1–200 μg/mL) of the test compounds were applied. DMSO was added to the control cells at a final concentration of 1.0% (v/v), which was related to the maximal concentration of the solvent compounds used in the experiment. After 24 h of incubation with the lipopeptides at 37 °C in a humidified 5% CO2 incubator, a medium containing 1 mg/mL of MTT (3-(4,5-dimethylthiazol-2-yl)-2,5-diphenyltetrazolium bromide) was added to the wells up to a final concentration of 0.5 mg/mL. Subsequently, the plates were incubated at 37 °C for 4 h. Then, the medium was removed by suction, and the formazan product was solubilized with DMSO. The background absorbance at 630 nm was subtracted from that at 570 nm for each well (Epoch, BioTek Instruments, Winooski, VT, USA). Six replicates were conducted for each concentration. All experiments were repeated at least twice and the resulting IC50 values were calculated with a GraFit 7 software (v. 7.0, Erithacus, Berkley, CA, USA).

[2] = test system: human cervical adenocarcinoma cell line (HeLa S3); experiment: MTT assay; settings: 24 h incubation at 37 °C, six replicates per concentration, repeated at least twice
Description: as §1

[3] = test system: Pseudomonas aeruginosa ATCC 9027
How it was run: (§2)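 Broth microdilution per CLSI: bacteria at 5 × 10^5 CFU/mL in MHB, 18 h, and yeasts at 2 × 10^3 CFU/mL in RPMI-1640 with 2% D-glucose, 24 h, both at 37 °C, lipopeptides 0.5–256 μg/mL. MIC is lowest concentration visibly inhibiting growth; triplicate.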

[4] = test system: Staphylococcus epidermidis ATCC 14990
How it was run: as §2

[5] = test system: Candida albicans ATCC 10231
How it was run: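 CLSI microdilution. Inocula: bacteria 5 × 10^5 CFU/mL (MHB), yeasts 2 × 10^3 CFU/mL (RPMI-1640, 2% D-glucose). Lipopeptides 0.5–256 μg/mL; 37 °C, 18 h/24 h resp.; visual MIC, n=3.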

[6] = test system: human red blood cells (hRBCs); experiment: Hemolysis assay; settings: peptide concentration causing 50% hemolysis; 4% (v/v) hRBCs in PBS, 1 h, 37 °C, absorbance 540 nm, triplicate
Description: The hemolysis assay was performed by using the method reported previously. Fresh human red blood cells (hRBCs) with anticoagulant (EDTA) were rinsed three times with a PBS by centrifugation at 800× g for 10 min and diluted with PBS. The lipopeptides were serially diluted on a 96-well microtiter polystyrene plate and hRBCs were added up to a final volume of 100 μL. The peptide concentration ranged between 0.5 and 256 μg/mL and the final hRBCs concentration was 4% (v/v). Controls for zero hemolysis (blank) and 100% hemolysis consisted of hRBCs suspended in PBS and 1% of Triton-X 100, respectively. The plate was incubated for 1 h at 37 °C and then centrifuged (800× g, 10 min, 4 °C). Subsequently, the supernatant was […] to new microtiter plates and the absorbance at 540 nm was measured. All experiments were conducted in triplicate. HC50 was calculated using an ic50.tk tool. Protocol of the study received approval from the local Bioethics Committee at the Medical University of Gdańsk (NKBBN/262/2019, approval date: 10 June 2019).

[7] = test system: Pseudomonas aeruginosa ATCC 9027; remark: listed apart in the source
Description: (§3) The Staphylococcus aureus ATCC 25923, Staphylococcus epidermidis ATCC 14990, Escherichia coli ATCC 25922, Pseudomonas aeruginosa ATCC 9027, Candida albicans ATCC 10231, Candida glabrata ATCC 15126, Candida lipolytica PCM 2680-FY, and Candida tropicalis PCM 2709-FY strains were acquired from the Polish Collection of Microorganisms (PCM, Polish Academy of Sciences, Wrocław, Poland) and from the American Type Culture Collection (ATCC). All the strains were stored at −80 °C in Roti-Store cryo vials and before the tests were transferred into fresh Mueller–Hinton broth (MHB, Biocorp, Warsaw, Poland) for bacteria or RPMI-1640 (Sigma-Aldrich, Steinheim, Germany) for fungi and incubated for 24 h at 37 °C. Then, the cultures were seeded on Mueller–Hinton agar (BioMaxima, Lublin, Poland) or Sabouraud dextrose agar (SDA, BioMaxima, Lublin, Poland) plates, respectively, and incubated as just mentioned. These agar cultures were used for further microbiological assays. Cell densities for all assays were adjusted spectrophotometrically (Multiskan GO Microplate Spectrophotometer, Thermo Fisher Scientific, Vantaa, Finland) at 600 and 660 nm for bacteria and fungi, respectively.
(§4) The assay was performed to evaluate the effect of the lipopeptides in preventing biofilm formation. The preparation of inoculums was followed by a ca. 500-fold dilution of the 24 h cultures of microorganisms. Briefly, 50 μL of the compounds in the concentration range, diluted in appropriate medium, were prepared on 96-well polystyrene flat-bottom plates. Subsequently, the 50 μL of the bacterial/fungal inoculums were added to reach the same microbial density as that in the MBEC assay. After 24 h of incubation at 37 °C, the wells were rinsed three times with PBS and the fresh media with resazurin (4 g/L) were added. The MBICs were read after 1 h. All experiments were conducted in triplicate.

[8] = test system: Candida glabrata ATCC 15126
Description: as §3, §4

[9] = test system: Candida lipolytica PCM 2680-FY
Description: as §3, §4

[10] = test system: Candida albicans ATCC 10231; remark: listed apart in the source
Description: as §3, §4

[11] = test system: Staphylococcus aureus ATCC 25923
Description: as §3, §4

[12] = test system: Escherichia coli ATCC 25922
Description: as §3, §4

[13] = broth microdilution (CLSI), MHB, 5 × 10^5 CFU/mL, 37 °C, 18 h, visual, triplicate
[14] = prevention of biofilm formation on polystyrene plates, 24 h at 37 °C, resazurin, triplicate

Compound | HaCaT IC50 [1] [µg/mL] | HeLa IC50 [2] [µg/mL] | HC50 [6] [µg/mL] | MIC P. aeruginosa ([3]; ATCC 9027, 18 h) [µg/mL] | MIC S. epidermidis ([4]; ATCC 14990, 18 h) [µg/mL] | MIC C. albicans ([5]; ATCC 10231, 24 h) [µg/mL] | MBIC P. aeruginosa ([7]; ATCC 9027, 24 h) [µg/mL] | MBIC C. glabrata ([8]; ATCC 15126, 24 h) [µg/mL] | MBIC C. lipolytica ([9]; 24 h) [µg/mL] | MBIC C. albicans ([10]; ATCC 10231, 24 h) [µg/mL] | MBIC S. aureus ([11]; ATCC 25923, 24 h) [µg/mL] | MBIC E. coli ([12]; ATCC 25922, 24 h) [µg/mL] | also measured
CCCCCCCCCCCCCCCC(=O)N[C@H]1CSSC[C@@H](C(N)=O)NC(=O)[C@H](CCCCN)NC(=O)[C@H](CCCCN)NC(=O)[C@H](CCCCN)NC(=O)[C@H](CCCCN)NC1=O [C2, C16-CKKKKC-NH2] (Palmitoyl-CKKKKC-NH2; disulfide 1-6) | 26.9 ± 1.9 | 17.9 ± 2.1 | 30.6 ± 1.1 | – | – | – | – | – | – | – | – | – | MIC P. aeruginosa [3, 13]: 32 µg/mL (≈ 32.9 µM); MIC S. epidermidis [4, 13]: 8 µg/mL (≈ 8.23 µM); MIC C. albicans ([5]; broth microdilution (CLSI), RPMI-1640 with 2% D-glucose, 2 × 10^3 CFU/mL, 37 °C, 24 h, visual, triplicate): 4 µg/mL (≈ 4.11 µM); MBIC P. aeruginosa [7, 14]: 64 µg/mL; MBIC C. glabrata [8, 14]: 32 µg/mL; MBIC C. lipolytica [9, 14]: 8 µg/mL; MBIC C. albicans [10, 14]: 16 µg/mL; MBIC S. aureus [11, 14]: 16 µg/mL; MBIC E. coli [12, 14]: 32 µg/mL
CCCCCCCCCCCCCCCC(=O)N[C@H]1CSSC[C@@H](C(N)=O)NC(=O)[C@H](CCCCN)NC(=O)[C@H](CCCCN)NC(=O)[C@H](CCCNC(=N)N)NC(=O)[C@H](CCCNC(=N)N)NC1=O [C7, C16-CRRKKC-NH2] (Palmitoyl-CRRKKC-NH2; disulfide 1-6) | 21.3 ± 8.2 | 20.9 ± 2.1 | 92.0 ± 9.6 | 256 (≈ 249 µM) | 4 (≈ 3.89 µM) | 16 (≈ 15.6 µM) | 128 | 16 | 8 | 16 | 16 | 128 | –
CCCCCCCCCCCCCCCC(=O)N[C@H]1CSSC[C@@H](C(N)=O)NC(=O)[C@H](CCCCN)NC(=O)[C@H](CCCCN)NC(=O)[C@H](CCCCN)NC(=O)[C@H](CCCNC(=N)N)NC1=O [C3, C16-CRKKKC-NH2] (Palmitoyl-CRKKKC-NH2; disulfide 1-6) | 36.8 ± 2.7 | 38.8 ± 4.4 | 66.5 ± 14.8 | – | 8 (≈ 8 µM) | 2 (≈ 2 µM) | 64 | 8 | 2 | 8 | 16 | 64 | –
CCCCCCCCCCCCCCCC(=O)N[C@@H](CCCCN)C(=O)N[C@@H](CCCCN)C(=O)N[C@@H](CCCCN)C(=O)N[C@@H](CCCNC(=N)N)C(N)=O [L6, C16-KKKR-NH2] (Palmitoyl-KKKR-NH2) | 7.5 ± 0.8 | 3.6 ± 0.5 | 89.7 ± 2.4 | 64 (≈ 80.4 µM) | 4 (≈ 5.02 µM) | 32 (≈ 40.2 µM) | 64 | 64 | 32 | 64 | 32 | 32 | –
CCCCCCCCCCCCCCCC(=O)N[C@H]1CSSC[C@@H](C(N)=O)NC(=O)[C@H](CCCCN)NC(=O)[C@H](CCCNC(=N)N)NC(=O)[C@H](CCCCN)NC(=O)[C@H](CCCCN)NC1=O [C5, C16-CKKRKC-NH2] (Palmitoyl-CKKRKC-NH2; disulfide 1-6) | 12.9 ± 4.6 | 21.9 ± 4.5 | 97.0 ± 15.4 | 256 (≈ 256 µM) | 4 (≈ 4 µM) | 16 (≈ 16 µM) | 64 | 16 | 8 | 16 | 32 | 32 | –
